Like-named read-outs stand apart in the source and are kept apart here.
Biological target: T1, E. coli DdlB enzyme (D-alanine:D-alanine ligase) (Escherichia coli, UniProt P07862)
T1 construct: made in house; host or cells: E. coli
Test: biochemical
Conditions: for remaining activity at 2300 µM: tested concentration 2.3 mM; for remaining activity at 1800 µM: tested concentration 1.8 mM; for remaining activity at 3100 µM: tested concentration 3.1 mM; for remaining activity at 1900 µM: tested concentration 1.9 mM; for remaining activity at 2000 µM: tested concentration 2.0 mM; for remaining activity at 2100 µM: tested concentration 2.1 mM; for remaining activity at 2200 µM: tested concentration 2.2 mM; for remaining activity at 2400 µM: tested concentration 2.4 mM; for remaining activity at 1700 µM: tested concentration 1.7 mM; for remaining activity at 2700 µM: tested concentration 2.7 mM

[1] = residual activity, read-out: DdlB RA
[2] = residual activity of DdlB, fragment library screening, tested concentration 2.5 mM, read-out: DdlB RA
[3] = fragment library screening, read-out: DdlB RA
[4] = tested concentration 2.5 mM, read-out: DdlB RA

CC1=CC(C)(C)Nc2c(C(=O)O)cccc21 [Compound Y021-0768]
remaining activity at 2300 µM [1]: 105%

O=C(C1CCC1)N1CCC(F)(C(=O)N2CCCC2)CC1 [Compound T502-1244]
remaining activity at 1800 µM [1]: 97%

Oc1cc(-c2cccnc2)n[nH]1 [Compound 8018-0078]
remaining activity at 3100 µM (read-out: DdlB RA): 91%

Nc1cccc(C(F)(F)F)n1 [FLD091]
remaining activity at 2500 µM (read-out: DdlB RA): 100%

NC(=O)NC(=O)Cc1ccccc1 [FLD017]
remaining activity at 2500 µM [2]: 100%

O=C(O)c1cccc2c1C(=O)N(Cc1ccncc1)C2 [Compound 8017-6147]
remaining activity at 1900 µM [3]: 90%

CCCNC(=O)N1CCC2(CCC(=O)N(C)CC2)CC1 [Compound S509-1557]
remaining activity at 2000 µM [1]: 98%

Cc1cc(NC(=O)C2CC(=O)N(C3CCCCC3)C2)no1 (centres unmarked) [Compound Y031-2007]
remaining activity at 1900 µM [1]: 83%

Cc1c(C(=O)O)nnn1-c1ccc2c(c1)CCC2 [Compound T640-0079]
remaining activity at 2100 µM (read-out: DdlB RA): 92%

O=C1CSCC(C(=O)O)N1 (centres unmarked) [FF01-5725]
remaining activity at 3100 µM (read-out: DdlB RA): 107%

CC(=O)Nc1cccc(C)c1 [FLD063]
remaining activity at 2500 µM [2]: 100%

CC(C)(C)c1cc(C(=O)O)nn1-c1ccccc1 [Compound 8012-7831]
remaining activity at 2000 µM [1]: 102%

Cn1nc(CCC(=O)NC2CCCC2)c2c1CCOC2 [SD48-0064]
remaining activity at 2200 µM [1]: 102%

CC(C)c1cccc(O)c1 [FLD176]
remaining activity at 2500 µM [2]: 95%

CC1=NN(C(C#N)c2cn(C)nc2C)C(C)(C)C1 (centres unmarked) [Compound 8017-8222]
remaining activity at 2400 µM (read-out: DdlB RA): 105%

CCS(=O)(=O)N1CCCc2cc(C(=O)NC)ccc21 [Compound D348-0142]
remaining activity at 2100 µM [1]: 92%

NS(=O)(=O)Cc1ccccc1Cl [Compound 8008-0774]
remaining activity at 2400 µM (read-out: DdlB RA): 89%

OC1CCCc2ccccc21 (centres unmarked) [FLD077]
remaining activity at 2500 µM [2]: 99%

CC(C)c1nnc(-c2cnccn2)o1 [Compound Z632-7479]
remaining activity at 2600 µM (tested concentration 2.6 mM, read-out: DdlB RA): 105%

OCc1ccc(Br)cc1 [FLD122]
remaining activity at 2500 µM [2]: 96%

CNC(=O)c1cc(C)nc2ccc(C(C)C)cc12 [Compound Z601-7136]
remaining activity at 2100 µM (read-out: DdlB RA): 97%

CC1(C)CC(=O)c2cnc(NC3CC3)nc2C1 [Compound Y600-1530]
remaining activity at 2400 µM (read-out: DdlB RA): 89%

Cc1c(-c2cc(C(=O)O)n3nccc3n2)cnn1C [Compound Y504-7677]
remaining activity at 1900 µM (read-out: DdlB RA): 86%

O=C(O)c1ccc(F)cc1 [FLD062]
remaining activity at 2500 µM [2]: 98%

CC(=O)c1cnc2c(C(=O)O)cnn2c1C [Compound D717-0038]
remaining activity at 2300 µM (read-out: DdlB RA): 104%

Cc1ccc2c(c1)CCCN2C(=O)CCC(=O)O [Compound Y206-3286]
remaining activity at 2000 µM [3]: 90%

Cc1ccc(S(=O)(=O)N2CCOCC2)c(C)c1 [Compound 2488-0460]
remaining activity at 2200 µM (read-out: DdlB RA): 90%

COc1cccc2c(O)c(C(=O)O)cnc12 [Compound 8019-9999]
remaining activity at 2300 µM [1]: 78%

OB(O)c1ccc2[nH]ncc2c1 [Compound H024-0113]
remaining activity at 3100 µM (read-out: DdlB RA): 93%

COc1ccc(OC)c(-c2oc3ccccc3c(=O)c2O)c1 [Compound 6877-0609]
remaining activity at 1700 µM (read-out: DdlB RA): 102%

CN(CC1CCOC1)C(=O)NC1CCCCC1 (centres unmarked) [Compound S213-1594]
remaining activity at 2500 µM [4]: 91%

O=C(O)c1ccccc1NC(=O)c1[nH]ncc1[N+](=O)[O-] [Compound 8010-7769]
remaining activity at 1800 µM [1]: 99%

O=C(O)C#CC12CC3CC(CC(C3)C1)C2 [Compound 8009-2654]
remaining activity at 2400 µM (read-out: DdlB RA): 112%

Cc1ccc(F)c(-n2cc(C(=O)O)nn2)c1 [Compound T640-0432]
remaining activity at 2300 µM (read-out: DdlB RA): 100%

O=C(O)c1ccncc1F [FLD151]
remaining activity at 2500 µM [2]: 98%

O=c1[nH]c2ccc(S(=O)(=O)N3CCCCC3)cc2o1 [Compound K893-0198]
remaining activity at 1800 µM (read-out: DdlB RA): 100%

COC(=O)N1C2C=CC(C2)C1(C(F)(F)F)C(F)(F)F (centres unmarked) [Compound 8007-6774]
remaining activity at 2100 µM [1]: 89%

NC(=O)NCC(=O)N[C@H](Cc1c[nH]cn1)C(=O)O [Compound 8012-0410]
remaining activity at 2000 µM [3]: 91%

Cc1onc(C(=O)O)c1COc1ccc([N+](=O)[O-])cc1 [Compound Y504-8568]
remaining activity at 1800 µM [3]: 97%

Cc1nn(C(C)C(=O)O)cc1Cl (centres unmarked) [FF01-4477]
remaining activity at 2700 µM (residual activity of DdlB, fragment library screening, read-out: DdlB RA): 89%

OC12CC3CC(C1)CC(NCc1cccnc1)(C3)C2 [Compound 8020-0633]
remaining activity at 1800 µM (read-out: DdlB RA): 92%

O=C(O)c1cnc(-c2ccc(F)cc2)nc1 [Compound 8020-5433]
remaining activity at 2300 µM (read-out: DdlB RA): 81%

CCC1(C(=O)NC2CCCCCC2)CCCCC(=O)N1 (centres unmarked) [Compound S515-0307]
remaining activity at 2100 µM [1]: 99%

c1cnc2c(c1)ccc1cccnc12 [FLD040]
remaining activity at 2500 µM [2]: 74%

CCOc1c(NC2CCCCC2)c(=O)c1=O [Compound K906-2368]
remaining activity at 2200 µM (read-out: DdlB RA): 76%

Oc1ccc(OCc2ccccc2)cc1 [FLD045]
remaining activity at 2500 µM [2]: 100%

NS(=O)(=O)c1ccc(NC(=O)CCC2CCCC2)cc1 [Compound Y204-2561]
remaining activity at 1700 µM (read-out: DdlB RA): 87%

O=C1Cc2cc([N+](=O)[O-])ccc2N1 [FLD155]
remaining activity at 2500 µM [2]: 99%

COCCn1c(CCC(=O)O)ccc1-c1ccccc1 [Compound D135-0001]
remaining activity at 1800 µM (read-out: DdlB RA): 90%

Cc1ccc(-c2noc(C(=O)O)n2)cc1 [Compound Y501-1890]
remaining activity at 2500 µM [4]: 77%

Cc1cccc(N)c1C#N [FLD086]
remaining activity at 2500 µM [2]: 100%

O=C(O)c1cc2nccc(-c3ccccc3)n2n1 [Compound 19, 7-Phenylpyrazolo[1,5-a]pyrimidine-2-carboxylic acid]
remaining activity at 1500 µM (at 1.5 mM, read-out: DdlB inhibition, RA (Residual Activity)): 90% | remaining activity at 5000 µM (at 5 mM, read-out: DdlB inhibition, RA (Residual Activity)): 50%

Cc1nnc(C2CCN(C(=O)c3ccco3)CC2)[nH]1 [Compound T630-1922]
remaining activity at 1900 µM [1]: 58%

Cn1cnc(S(=O)(=O)NC2CCCCCCC2)c1 [Compound G404-0427]
remaining activity at 2200 µM [1]: 91%

O=C1CCC2(CCN(S(=O)(=O)c3ccccc3)C2)N1 (centres unmarked) [Compound S914-0001]
remaining activity at 2100 µM [1]: 101%

N#Cc1ccccc1Br [FLD114]
remaining activity at 2500 µM [2]: 99%

Nc1ccc(Br)cn1 [FLD145]
remaining activity at 2500 µM [2]: 92%

CC(=O)Nc1ccc2c(C)cc(C)nc2n1 [Compound 8006-1575]
remaining activity at 2300 µM (read-out: DdlB RA): 97%

Oc1cc(-c2ccncc2)n[nH]1 [Compound 8011-7794]
remaining activity at 3100 µM (read-out: DdlB RA): 77%

Cc1ncoc1C(=O)N1CCCC(n2c(C)cnc2C)C1 (centres unmarked) [Compound S692-1464]
remaining activity at 2100 µM [1]: 96%

O=C1CCn2ncnc2N1 [Compound Y021-0743]
remaining activity at 3600 µM (residual activity of DdlB, fragment library screening, tested concentration 3.6 mM, read-out: DdlB RA): 98%

N#Cc1ccc(NC(=O)[C@H]2CC=CC[C@H]2C(=O)O)cc1 [Compound 8009-1194]
remaining activity at 2000 µM [1]: 91%

N#Cc1ccc(CN)cc1 [FLD152]
remaining activity at 2500 µM (read-out: DdlB RA): 97%

NS(=O)(=O)c1ccc(CNC(=O)C2CCCO2)cc1 (centres unmarked) [Compound Y030-8649]
remaining activity at 1800 µM (read-out: DdlB RA): 97%

Cc1cc(C)c2ccc(C(=O)O)cc2n1 [Compound 8019-7912]
remaining activity at 2500 µM [4]: 88%

O=C(O)c1cc(Br)cc(Br)c1O [Compound Y501-3736]
remaining activity at 1700 µM (read-out: DdlB RA): -39%

O=C(O)CCCn1cnc2ccc([N+](=O)[O-])cc2c1=O [Compound Y044-6460]
remaining activity at 1800 µM [3]: 63%

CCS(=O)(=O)N1CCC2(CCC2OC)CC1 (centres unmarked) [Compound S664-0247]
remaining activity at 2000 µM (read-out: DdlB RA): 92%

O=C1CSC2N1CCNC21CCCCC1 (centres unmarked) [Compound 8003-7360]
remaining activity at 2200 µM (read-out: DdlB RA): 90%

Cn1nccc1C(=O)N1CCC(Nc2cccnc2)C1 (centres unmarked) [Compound S059-0159]
remaining activity at 2200 µM [1]: 85%

CCCNc1c(N2CCCC(C(=O)OCC)C2)c(=O)c1=O (centres unmarked) [Compound C738-0118]
remaining activity at 1700 µM (read-out: DdlB RA): 108%

Cc1ccc(CS(=O)(=O)N2CCc3ccccc32)cc1 [Compound Y300-3078]
remaining activity at 2100 µM [1]: 112%

O=C(O)c1ccccc1C(=O)NCc1cccnc1 [Compound 1514-0633]
remaining activity at 2000 µM [3]: 93%

Cn1cnc2c(c1=O)CCC(N)CC2 (centres unmarked) [FF20-0287]
remaining activity at 3100 µM (read-out: DdlB RA): 91%

O=c1[nH]c2ncc(Br)cc2o1 [Compound Y042-2897]
remaining activity at 2300 µM (read-out: DdlB RA): 92%

O=[N+]([O-])c1ccc(O)c(Cl)c1 [FLD092]
remaining activity at 2500 µM [2]: 97%

CCCCCC(C)n1nc(O)cc1N (centres unmarked) [Compound D068-0217]
remaining activity at 2500 µM [4]: 103%

OCc1ccncc1 [FLD197]
remaining activity at 2500 µM [2]: 100%

O=C(Cc1nc(-c2ccccn2)n[nH]1)NCC1CCCO1 (centres unmarked) [Compound 8020-1329F]
remaining activity at 1700 µM [1]: 104%

Cc1ccc(CNC(=O)C2Cn3cccc3C(=O)N2C)o1 (centres unmarked) [Compound S531-0187]
remaining activity at 1700 µM [1]: 92%

CC(=O)N1CC(=O)N(CCc2ccccc2)CC(O)C1 (centres unmarked) [SA85-1024]
remaining activity at 2200 µM [1]: 95%

NC1=NC(=O)CO1 [Compound 1318-0067]
remaining activity at 5000 µM (residual activity of DdlB, fragment library screening, tested concentration 5.0 mM, read-out: DdlB RA): 102%

N#CCC(=O)N(c1ccccc1)c1ccccc1 [Compound Y204-3664]
remaining activity at 2500 µM [4]: 89%

CN1CCCCC(CC(=O)O)C1=O (centres unmarked) [Compound S581-1125]
remaining activity at 2700 µM (read-out: DdlB RA): 95%

CCOC(=O)Nc1ccccc1 [FLD098]
remaining activity at 2500 µM [2]: 96%

From publication PMC9718554, “Discovery of a fragment hit compound targeting D-Ala:D-Ala ligase of bacterial peptidoglycan biosynthesis” (Journal of Enzyme Inhibition and Medicinal Chemistry, 2022)
